Tests used:
[1] = system: C. elegans strain with a pharyngeal GFP tag and a bus-5 mutation; experiment: C. elegans chronological lifespan assay versus small molecule AChE inhibitors (Example 4); assay type: in vivo; conditions: 10 mg/ml; for maximum improvement in survival: at day 13 (N350), day 12 (N355, N314), day 9 (N354); for improvement in mean life span: vs control
Procedure: The samples were prepared as a DMSO-based 10 mg/ml stock, aliquoted when necessary and a serial dilution of the stock solution was performed for N92-4. The stock solutions were stored at −20° C.
The assay was carried out using the standard C. elegans strain with a pharyngeal GFP tag and a bus-5 mutation. The GFP tag enables images of the worms to be captured using fluorescence microscopy. […] The worms were raised in the presence of a treatment or control on 12 well NGM agar plates, and were maintained at 20° C. with sufficient food (Escherichia coli strain OP-50).
A proprietary data analysis software package was used to analyse the effects of different active ingredients on aspects of worm ageing. The package was developed using a MATLAB image analysis algorithm which was adapted to recognise and count worms based on their fluorescence intensity above background fluorescence. A living worm is distinguished from a dead worm based on the degree of movement between two consecutive images, which enables the number of living and cumulative number of dead worms to be tracked throughout the experiment. […] A selection of images was manually checked to ensure the software had correctly identified the number of worms.
The statistical analysis output of OASIS provides Log-Rank and Fishers Exact Test results. The Log-Rank result is a non-parametric test which compares two survival functions for the overall lifespan assay, providing a reliable p-value summarising the whole experiment. The Fishers Exact Test calculates the significance of survival function comparisons at multiple specific time points throughout the experiment, rather than for the overall lifespan

Yeast = conditions: cited from earlier work

Row | SMILES | Restricted mean lifespan [1] [days] | maximum improvement in lifespan [1] | maximum improvement in survival [1] | improvement in mean life span [1] | effect on lifespan (Yeast)
1 | COc1ccc2c3c1O[C@H]1C[C@@H](O)C=C[C@@]31CCN(C)C2 [N354, Galantamine] | 14.05 | +15.9% | up to +11.6% | +8% | 
2 | Oc1ccc(C=Cc2cc(O)cc(O)c2)cc1 [Resveratrol] |  |  |  |  | able to increase lifespan in yeast
3 | CCN(C)C(=O)Oc1cccc([C@H](C)N(C)C)c1 [N355, Rivastigmine] | 14.04 | +15.6% | up to +13.3% | +7.9% | 
